According to patent publication US20210040073A1, “AZABICYCLO-SUBSTITUTED TRIAZOLE DERIVATIVE, PREPARATION METHOD THEREOF, AND APPLICATION OF SAME IN MEDICINE” (Jiangsu Hengrui Medicine Co., Ltd., priority 2016, published 2021):

Columns and labels:
human OTR = target: T1, human OTR (Homo sapiens, UniProt P30559); test: Inhibition activity on human OTR (Fluo-4 calcium assay, HEK293/human OTR stably transfected cells, oxytocin 3 nM); type: cell-based; conditions: calcium signal
T1 construct: expressed in transfected cells
T1 sequence (P30559 1-389): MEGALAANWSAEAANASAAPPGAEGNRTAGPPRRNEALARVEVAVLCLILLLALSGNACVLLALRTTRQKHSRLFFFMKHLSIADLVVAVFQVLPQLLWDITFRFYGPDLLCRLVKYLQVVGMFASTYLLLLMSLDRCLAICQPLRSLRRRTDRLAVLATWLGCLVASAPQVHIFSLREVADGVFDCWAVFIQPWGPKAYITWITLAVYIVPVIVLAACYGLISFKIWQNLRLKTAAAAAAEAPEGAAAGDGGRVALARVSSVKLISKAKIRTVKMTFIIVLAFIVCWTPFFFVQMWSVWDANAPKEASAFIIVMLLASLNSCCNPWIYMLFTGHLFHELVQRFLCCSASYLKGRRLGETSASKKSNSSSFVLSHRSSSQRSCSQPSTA
Protocol: The inhibition effect of the compounds of the present invention on the activity of human OTR protein expressed in HEK293/human OTR stably transfected cells was determined by the following experimental method:
The pcDNA3.1-hOTR plasmid was transferred into HEK293 cells with the Lipofectamine® 3000 transfection reagent; G418 was added on the next day to screen, and monoclonal cell lines were selected.
(§1) HEK293/human OTR stably transfected cells were inoculated in a 96-well plate with an inoculation density of 25,000 cells/well one day in advance. On the next day, a loading buffer containing Fluo-4 dye was formulated using the reagents in the Fluo-4 NW calcium assay kit, and the culture medium was then removed; 100 μl of the loading buffer containing Fluo-4 dye were added to each well, and the plate was incubated at 37° C. for 30 minutes. After that, the plate was moved to room temperature and equilibrated for 10 minutes. The compounds were formulated into concentration gradients of 10^6, 10^5, 10^4, 10^3, 10^2 and 10^1 nM. 1 μl of the compounds in each concentration was added to each well, and the plate was incubated at room temperature for 10 minutes. 50 μl of oxytocin polypeptide (3 nM) were automatically added by the machine, and the values were immediately detected at 494/516 nM by the flexstation 3 microplate reader. IC50 values of the compounds were calculated by Graphpad prism software using fluorescence signals corresponding to different concentrations.
The inhibition activity of the compounds of the present invention on human OTR was determined by the above test, and the obtained IC50 values are shown in Table 1.

human V2R = target: T2, human V2R (Homo sapiens, UniProt P30518); test: Inhibition activity on human V2R (cAMP HTRF assay, HEK293/human V2R pool cells, vasopressin); type: cell-based
T2 construct: expressed in transfected cells; host or cells: HEK293 (G418-selected pool)
Protocol: The inhibition effect of the compounds of the present invention on the activity of human V2R protein expressed in HEK293/human V2R cells was determined by the following experimental method:
The pcDNA3.1-V2R plasmid was transferred into HEK293 cells with the Lipofectamine® 3000 transfection reagent; G418 was added on the next day, and the HEK293/human V2R pool cell lines were obtained.
HEK293/human V2R pool cells were digested with the cell dissociation solution (enzyme-free), thereby dissociating the cells from the cell culture dish into individual cells. After completion, the cell solution was blown well, and centrifuged to remove the supernatant. The cells were re-suspended in the test buffer 1 (1×HBSS+20 mM HEPES+0.1% BSA) and counted. The cell density was adjusted to 1250 cells/5 μl, i.e., 2.5*10^5/ml.
The compounds were formulated into a series of concentrations of 20 mM, 6.67 mM, 2.22 mM, 0.74 mM, 0.25 mM, 0.08 mM, 27.4 μM, 9.14 μM, 3.05 μM, 1.02 μM, 0.34 μM and 0 μM (DMSO) with pure DMSO. The compounds were then formulated into a 4-fold use concentration with the test buffer 2 (test buffer 1+1 mM IBMX).
Agonist: 460 μM vasopressin was used as the mother liquor, formulated as a 2 μM solution with DMSO, which was then diluted to a 0.5 nM solution with the test buffer 2.
Standard: The first point was 20 μl of a stock solution (2848 nM), which was diluted successively to a total of eleven concentrations in a 4-fold concentration gradient with the test buffer 1 from the second point.
1. The well-mixed cells were added to a 384-well plate (5 μl/well) without changing the tip.
2. The test compounds and positive compound formulated were added (2.5 μl/well), and the tips were changed.
3. The plate was centrifuged at 1000 rpm for 1 min, shaken for 30 sec to mix well, and incubated at room temperature for 30 min.
4. The standard curve wells were added with the test buffer 2 (5 μl/well).
5. The agonist formulated was added (2.5 μl/well), and the tips were changed; the plate was centrifuged at 1000 rpm for 1 min, shaken for 30 sec to mix well, and incubated at room temperature for 30 min.
6. cAMP-d2 (a component in the cAMP dynamic 2 kit) and Anti-cAMP-Eu-Cryptate (a component in the cAMP dynamic 2 kit) were formulated in the dark, which were then mixed well with cAMP lysate (a component in the cAMP dynamic 2 kit) in a ratio of 1:4. Each well was added with the formulated cAMP-d2 solution (5 μl/well), followed by addition of Anti-cAMP-Eu-Cryptate (5 μl/well). The plate was shaken for 30 sec to mix well, and incubated in the dark at room temperature for 1 h.
4) Plate reading: The HTRF signals were read by the PheraStar multi-function microplate reader.
The data in this test was processed using the data processing software Graphpad Prism.
The inhibition activity of the compounds of the present invention on human V2R was determined by the above test, and the obtained IC50 values are shown in Table 4.

human V1bR = target: T3, human V1bR (Homo sapiens, UniProt P47901); test: Inhibition activity on human V1bR (Fluo-4 calcium assay, HEK293/human V1bR pool cells, vasopressin 3 nM); type: cell-based; conditions: calcium signal
T3 construct: expressed in transfected cells; host or cells: HEK293 (G418-selected pool)
T3 sequence (P47901 1-424): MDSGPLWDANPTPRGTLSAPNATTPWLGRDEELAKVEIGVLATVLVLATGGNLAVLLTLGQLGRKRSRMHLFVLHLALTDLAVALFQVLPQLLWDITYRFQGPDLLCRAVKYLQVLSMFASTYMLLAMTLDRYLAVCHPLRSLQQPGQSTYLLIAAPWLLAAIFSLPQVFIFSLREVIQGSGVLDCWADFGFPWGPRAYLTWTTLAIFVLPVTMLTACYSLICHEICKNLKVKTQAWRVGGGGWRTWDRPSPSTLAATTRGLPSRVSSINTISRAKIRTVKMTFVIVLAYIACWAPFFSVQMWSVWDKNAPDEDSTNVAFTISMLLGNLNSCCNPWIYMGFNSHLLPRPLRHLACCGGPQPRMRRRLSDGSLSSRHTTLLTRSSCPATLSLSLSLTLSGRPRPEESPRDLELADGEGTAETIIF
Protocol: The inhibition effect of the compounds of the present invention on the activity of human V1bR protein expressed in HEK293/human V1bR cells was determined by the following experimental method:
The pcDNA3.1-V1bR plasmid was transferred into HEK293 cells with the Lipofectamine® 3000 transfection reagent; G418 was added on the next day, and the HEK293/human V1bR pool cell lines were obtained.
as §1, with “V1bR pool” for “OTR stably transfected”, “50 μl of oxytocin polypeptide (3 nM) were automatically added by the machine, and the values were immediately detected at 494/516 nM by the flexstation 3 microplate reader.” left out

human V1aR = target: T4, human V1aR (Homo sapiens, UniProt P37288); test: Inhibition activity on human V1aR (Fluo-4 calcium assay, HEK293/human V1aR stably transfected cells, vasopressin 3 nM); type: cell-based; conditions: calcium signal
T4 construct: expressed in transfected cells
Protocol: The inhibition effect of the compounds of the present invention on the activity of human V1aR protein expressed in HEK293/human V1aR stably transfected cells was determined by the following experimental method:
The pcDNA3.1-V1aR plasmid was transferred into HEK293 cells with the Lipofectamine® 3000 transfection reagent; G418 was added on the next day to screen, and monoclonal cell lines were selected.
as §1, with “V1aR” for “OTR”, “50 μl of oxytocin polypeptide (3 nM) were automatically added by the machine, and the values were immediately detected at 494/516 nM by the flexstation 3 microplate reader.” left out
The inhibition activity of the compounds of the present invention on human V1aR was determined by the above test, and the obtained IC50 values are shown in Table 2.

[1] = Pharmacokinetics assay in rats after intragastrical administration; conditions: both, Sprague-Dawley, rat, plasma, po, 2 mg/kg
Protocol: Rats were used as test animals. […] The pharmacokinetic behavior of the compounds of the present invention was studied and evaluated in rats.
After an overnight fast, SD rats were administered intragastrically the test compounds at an administration dosage of 2.0 mg/kg and an administration volume of 10.0 mL/kg.
0.2 mL of blood was taken from the orbital sinus before administration and at 0.5, 1.0, 2.0, 4.0, 6.0, 8.0, 11.0 and 24.0 hours after administration. The samples were stored in heparinized tubes, and centrifuged for 10 minutes at 4° C. at 3,500 rpm to separate the blood plasma. The plasma samples were stored at −20° C. The rats were fed 2 hours after administration.
The content of the test compounds in the plasma of rats after intragastrical administration of the test compounds at different concentrations was determined: 25 μL of rat plasma at each time after administration was taken, added with 50 μL of the internal standard solution of camptothecin (100 ng/mL) and 200 μL of acetonitrile, vortex-mixed for 5 minutes, and centrifuged for 10 minutes (4000 rpm). 1.0 μL of the supernatant was taken from the plasma samples for LC/MS/MS analysis.

T2 sequence (P30518 whole entry): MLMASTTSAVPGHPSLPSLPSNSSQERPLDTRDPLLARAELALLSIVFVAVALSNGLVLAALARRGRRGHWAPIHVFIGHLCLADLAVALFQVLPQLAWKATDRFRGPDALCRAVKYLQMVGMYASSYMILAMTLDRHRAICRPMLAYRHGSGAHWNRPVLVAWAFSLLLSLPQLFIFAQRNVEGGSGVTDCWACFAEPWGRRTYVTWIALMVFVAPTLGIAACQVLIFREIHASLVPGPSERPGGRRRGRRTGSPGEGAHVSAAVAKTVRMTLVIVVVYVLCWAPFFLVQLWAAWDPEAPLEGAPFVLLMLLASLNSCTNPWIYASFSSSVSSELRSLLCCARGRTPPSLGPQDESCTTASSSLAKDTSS
T4 sequence (P37288 whole entry): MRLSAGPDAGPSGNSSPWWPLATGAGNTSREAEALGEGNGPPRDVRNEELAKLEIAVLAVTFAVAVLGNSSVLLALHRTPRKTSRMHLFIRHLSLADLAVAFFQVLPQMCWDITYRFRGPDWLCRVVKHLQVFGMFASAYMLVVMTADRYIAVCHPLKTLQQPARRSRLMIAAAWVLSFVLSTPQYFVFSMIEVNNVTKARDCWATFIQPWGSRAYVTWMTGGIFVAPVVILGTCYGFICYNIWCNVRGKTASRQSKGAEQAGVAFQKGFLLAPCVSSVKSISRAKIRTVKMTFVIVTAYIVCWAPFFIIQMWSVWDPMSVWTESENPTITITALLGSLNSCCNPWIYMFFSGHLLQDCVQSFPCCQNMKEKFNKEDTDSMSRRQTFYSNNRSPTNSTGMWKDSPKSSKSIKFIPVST

SMILES | IC50 (human OTR) [µM] | IC50 (human V2R) [µM] | IC50 (human V1bR) [µM] | IC50 (human V1aR) [µM] | AUC [1] [ng·h/mL] | CL/F [1] [mL/min/kg] | Cmax [1] [ng/mL] | MRT [1] [h] | Vd/F [1] [L/kg] | half-life [1] [h]
[2H]C([2H])([2H])OCc1nnc(N2C[C@@H]3C[C@]3(c3ccc(F)cc3Cl)C2)n1-c1ccc(OC)nc1 [Example 14, (1S,5R)-1-(2-Chloro-4-fluorophenyl)-3-(5-((methoxy-d3)methyl)-4-(6-methoxypyridin-3-yl)-4H-1,2,4-triazol-3-yl)-3-azabicyclo[3.1.0]hexane] | 0.068 | 10.4 | 20.5 |  |  |  |  |  |  | 
COCc1nnc(N2C[C@H]3C[C@@]3(c3ccc(F)cc3Cl)C2)n1-c1ccc(OC)nc1 [Example 10, (1R,5S)-1-(2-Chloro-4-fluorophenyl)-3-(5-(methoxymethyl)-4-(6-methoxypyridin-3-yl)-4H-1,2,4-triazol-3-yl)-3-azabicyclo[3.1.0]hexane] | 0.624 |  |  |  |  |  |  |  |  | 
COCc1nnc(N2CC3CC3(c3ccc(F)cc3Cl)C2)n1-c1ccc(OC)nc1 (stereo not drawn) [Example 8, 1-(2-Chloro-4-fluorophenyl)-3-(5-(methoxymethyl)-4-(6-methoxypyridin-3-yl)-4H-1,2,4-triazol-3-yl)-3-azabicyclo[3.1.0]hexane] | 0.023 |  | 43.3 | 3 | 1980 ± 1020 | 23.3 ± 18 | 635 ± 273 | 2.18 ± 0.24 | 1.94 ± 0.983 | 1.08 ± 0.21
COc1ccc(-n2c(COC3CCOCC3)nnc2N2C[C@@H]3C[C@]3(c3ccc(F)cc3Cl)C2)cn1 [Example 2, (1S,5R)-1-(2-Chloro-4-fluorophenyl)-3-(4-(6-methoxypyridin-3-yl)-5-(((tetrahydro-2H-pyran-4-yl)oxy)methyl)-4H-1,2,4-triazol-3-yl)-3-azabicyclo[3.1.0]hexane] |  |  |  | 4.7 |  |  |  |  |  | 
COc1ccc(-n2c(CO[C@H]3CCOC3)nnc2N2C[C@@H]3C[C@]3(c3ccc(F)cc3Cl)C2)cn1 [Example 3, (1S,5R)-1-(2-Chloro-4-fluorophenyl)-3-(4-(6-methoxypyridin-3-yl)-5-((((S)-tetrahydrofuran-3-yl)oxy)methyl)-4H-1,2,4-triazol-3-yl)-3-azabicyclo[3.1.0]hexane] |  | 23 | 56.7 | 7.5 |  |  |  |  |  | 
COc1ccc(-n2c(C(F)F)nnc2N2C[C@@H]3C[C@]3(c3ccc(F)cc3Cl)C2)cn1 [Example 13, (1S,5R)-1-(2-Chloro-4-fluorophenyl)-3-(5-(difluoromethyl)-4-(6-methoxypyridin-3-yl)-4H-1,2,4-triazol-3-yl)-3-azabicyclo[3.1.0]hexane] | 0.052 |  |  | 1.9 |  |  |  |  |  | 
COc1ccc(-n2c(COC(F)F)nnc2N2C[C@@H]3C[C@]3(c3ccc(F)cc3Cl)C2)cn1 [Example 11, (1S,5R)-1-(2-Chloro-4-fluorophenyl)-3-(5-((difluoromethoxy)methyl)-4-(6-methoxypyridin-3-yl)-4H-1,2,4-triazol-3-yl)-3-azabicyclo[3.1.0]hexane] | 0.001 | 6.8 | 7.8 |  | 3980 ± 2970 | 12.6 ± 8.03 | 405 ± 110 | 5.82 ± 2.73 | 2.46 ± 0.706 | 2.86 ± 1.27
COc1ccc(-n2c(C)nnc2N2C[C@@H]3C[C@]3(c3ccc(F)cc3Cl)C2)cn1 [Example 7, (1S,5R)-1-(2-Chloro-4-fluorophenyl)-3-(4-(6-methoxypyridin-3-yl)-5-methyl-4H-1,2,4-triazol-3-yl)-3-azabicyclo[3.1.0]hexane] |  | 90 | 12.4 | 2 |  |  |  |  |  | 
COCc1nnc(N2C[C@@H]3C[C@]3(c3ccc(F)cc3Cl)C2)n1-c1ccc2c(c1)OCO2 [Example 5, (1S,5R)-3-(4-(Benzo[d][1,3]dioxol-5-yl)-5-(methoxymethyl)-4H-1,2,4-triazol-3-yl)-1-(2-chloro-4-fluorophenyl)-3-azabicyclo[3.1.0]hexane] | 0.131 |  |  | 1 |  |  |  |  |  | 
